Where a SMILES comes first, the peptide text is derived from it. [ ]: non-standard residue; d: D form. The star is where a group is joined. Dolaproine = CO[C@@H]([C@@H]1CCCN1)[C@@H](C)C(=O)O; Dil = CC[C@H](C)[C@H](NC)[C@@H](CC(=O)O)OC; X1 = C[C@@H](N*)[C@@H](O)c1ccccc1; NMeV = CN[C@H](C(=O)O)C(C)C
Legend:
[1] = system: BALB/c mice; assay: Gross toxicity of mice; format: in vivo, mouse
[2] = system: HEK-293L cells; assay: Cytotoxicity assay; format: cell-based, human; details: 48 hrs incubation
[3] = system: 4T1 mammary carcinoma; details: murine breast cancer 4T1 model, 0.5 mg/kg; cited from earlier work
[4] = system: MDA-MB-435 cells; details: 72 hrs incubation period; cited from earlier work
[5] = system: MDA-MB-435 cells; assay: Cytotoxicity assay; format: cell-based, human; details: 48 hrs incubation

In the case of `CC[C@H](C)[C@@H]([C@@H](CC(=O)N1CCC[C@H]1[C@H](OC)[C@@H](C)C(=O)N[C@H](C)[C@@H](O)c1ccccc1)OC)N(C)C(=O)[C@@H](NC(=O)[C@@H](NC)C(C)C)C(C)C` [MMAE, 1, monomethylauristatin E] (H-[NMeV]V[Dil][Dolaproine]-X1), the “Dose beyond which found considerably toxic to mice” value [1] is reported as 0.1 mg/kg, the “Death (%)” value ([1]; i.p. 5x, dose 0.1 mg/kg) is reported as 20% and the “Wt. loss (%)” value ([1]; i.p. 5x, dose 0.1 mg/kg, weighed for 3 weeks) is reported as 33.4%. For the same compound, the “Death (%)” value ([1]; i.p. 5x, dose 0.5 mg/kg) was 100%, the “Death (%)” value ([1]; i.p. 5x, dose 1.5 mg/kg) was 100% and the “In vitro cytotoxicity (comparison in words)” value [2] was “more potent than the prodrugs 3 and 8”. The “Animal death in 4T1 study” value [3] was “all animals died”, the “Activities to MDA-MB-435 cells” value [4] was “subnanomolar to low nanomolar activities” and the “In vitro cytotoxicity (comparison in words)” value [5] was “more potent than the prodrugs 3 and 8”.

Reference: PMC3277864 (Molecular Pharmaceutics, 2011)
